According to patent US10857230B2, “Co-therapy comprising a small molecule CSF-1R inhibitor and an agonistic antibody that specifically binds CD40 for the treatment of cancer” (Janssen Biotech, Inc., priority 2017, dated 2020):

System: CT26 murine colon carcinoma cells
Experiment: Mean Tumor Volume Assay, CT26 (Example 3)
Format: in vivo, BALB/c mice
Details: anti-mCD40 5 mpk, anti-CSF1R 10 mpk i.p. Days 1, 5, 9, 13
Procedure: The assay was run using female BALB/c mice (BALB/c AnNcr1, Charles River).
CT26 murine colon carcinoma cells were grown in RPMI-1640 medium containing 10% fetal bovine serum, 2 mM glutamine, 100 units/mL penicillin G sodium, 100 μg/mL streptomycin sulfate, and 25 μg/mL gentamicin. The cells were cultured in tissue culture flasks in a humidified incubator at 37° C., in an atmosphere of 5% CO2 and 95% air.
The CT26 colon cells used for implantation were harvested during log phase growth and re-suspended in cold phosphate buffered saline (PBS).
Each mouse was injected subcutaneously in the right flank with 1×10^6 tumor cells (0.1 mL cell suspension) and tumors were monitored as their volumes approached the target range of 75 to 125 mm^3. Day 1 of the study, animals with individual tumor volumes ranging from 75 to 125 mm^3 were randomized into six different groups (n=12).
The compound of formula of formula (I), rat IgG2a (Clone 2A3) (5.55 mg/mL), anti-CSF1R (purchased from BioXCell anti-mouse CSF1R (CD115), Clone: AFS98, SKU: BE0213, Lot No. 5248/0814) and anti-mCD40 (purchased from BioXCell, anti-mouse CD40, Clone: FGK45, SKU: 13E0016-2-) were used as test compounds, alone or in combination. The compound of formula (I) was stored at room temperature and antibody stock solutions were stored at 4° C. upon receipt. The compound of formula (I) was dissolved in 0.5% HPMC to yield a 1.0 mg/mL dosing solution. The dosing solution was stored at 4° C., protected from light. The rat IgG2a isotype, anti-CD40 and anti-CSF1R dosing solutions were prepared once at the beginning of study by diluting aliquots of the stock solutions with PBS. The dosing solution was stored at 4° C., protected from light.
On Day 1 of the study, groups of BALB/c mice (n=12/group) began dosing according to the following protocol
The vehicle (0.5% HPMC) and compound of formula (I) were administered orally (p.o.). The rat IgG2a isotype control, anti-mCD40 and anti-CSF1R were administered intraperitoneally (i.p.). Rat IgG2a(2A3), the anti-CSF1R and compound of formula (I) were administered at 10 mg/kg. The anti-mCD40 was administered at 5 mg/kg. The dosing volume for all animals was 10 mL/kg (0.2 mL per 20-g mouse) and was adjusted for body weight.

Compound: CC1(C)CC=C(c2nc(C3CC(C)(C)OC(C)(C)C3)ccc2NC(=O)c2nc(C#N)c[nH]2)CC1 [compound of formula (I), 4-cyano-N-(2-(4,4-dimethylcyclohex-1-en-1-yl)-6-(2,2,6,6-tetramethyltetrahydro-2H-pyran-4-yl)pyridin-3-yl)-1H-imidazole-2-carboxamide]
- Group Mean Tumor Volume, Day 6 (Day 6, formula (I) 10 mpk b.i.d. × 14 days p.o.): 107.69 mm^3
- % Tumor Growth Inhibition, Day 6 (Day 6, relative to Group 1 control, formula (I) 10 mpk b.i.d. × 14 days p.o.): −0.86%
- Group Mean Tumor Volume, Day 8 (Day 8, formula (I) 10 mpk b.i.d. × 14 days p.o.): 130.14 mm^3
- % Tumor Growth Inhibition, Day 8 (Day 8, relative to Group 1 control, formula (I) 10 mpk b.i.d. × 14 days p.o.): −6.79%
- Group Mean Tumor Volume, Day 10 (Day 10, formula (I) 10 mpk b.i.d. × 14 days p.o.): 196.09 mm^3
- % Tumor Growth Inhibition, Day 10 (Day 10, relative to Group 1 control, formula (I) 10 mpk b.i.d. × 14 days p.o.): −24.44%
- Group Mean Tumor Volume, Day 13 (Day 13, formula (I) 10 mpk b.i.d. × 14 days p.o.): 268.17 mm^3
- % Tumor Growth Inhibition, Day 13 (Day 13, relative to Group 1 control, formula (I) 10 mpk b.i.d. × 14 days p.o.): −1.27%
- Group Mean Tumor Volume, Day 15 (Day 15, formula (I) 10 mpk b.i.d. × 14 days p.o.): 392.41 mm^3
- % Tumor Growth Inhibition, Day 15 (Day 15, relative to Group 1 control, formula (I) 10 mpk b.i.d. × 14 days p.o.): 5.39%
- Group Mean Tumor Volume, Day 16 (Day 16, formula (I) 10 mpk b.i.d. × 14 days p.o.): 412.91 mm^3
- % Tumor Growth Inhibition, Day 16 (Day 16, relative to Group 1 control, formula (I) 10 mpk b.i.d. × 14 days p.o.): −2.37%
- Group Mean Tumor Volume, Day 20 (Day 20, formula (I) 10 mpk b.i.d. × 14 days p.o.): 739.49 mm^3
- % Tumor Growth Inhibition, Day 20 (Day 20, relative to Group 1 control, formula (I) 10 mpk b.i.d. × 14 days p.o.): 16.42%
